Assay results: PubChem BioAssay (NCI)
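Briefly, cells in 96-well plates were exposed to five compound concentrations for 48 h, and endpoints were estimated by linear interpolation. The concentration for full growth arrest is given as TGI.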

Columns and labels:
Assay in all cases: DTP human tumour cell line panel, 48 h
[1] = system: U251 CNS
[2] = system: EKVX NSCLC
[3] = system: SN12C renal
[4] = system: NCI/ADR-RES ovarian
[5] = system: LOX IMVI melanoma
[6] = system: IGROV1 ovarian
[7] = system: SF-539 CNS
[8] = system: MALME-3M melanoma
[9] = system: HOP-62 NSCLC
[10] = system: MDA-MB-435
[11] = system: HCT-15 colon
[12] = system: HCC-2998 colon
[13] = system: HCT-116 colon
[14] = system: T-47D breast
[15] = system: BT-549 breast
[16] = system: COLO 205 colon
[17] = system: KM12 colon
[18] = system: UACC-62 melanoma
[19] = system: K-562 leukemia
[20] = system: A498 renal
[21] = system: 786-0 renal
[22] = system: NCI-H23 lung
[23] = system: OVCAR-4 ovarian
[24] = system: HT29 colon
[25] = system: OVCAR-5 ovarian
[26] = system: HL-60(TB) leukemia
[27] = system: RPMI-8226 leukemia
[28] = system: TK-10 renal
[29] = system: SF-268 CNS
[30] = system: ACHN renal
[31] = system: M14 melanoma
[32] = system: CAKI-1 renal
[33] = system: HOP-92 NSCLC
[34] = system: SNB-19 CNS
[35] = system: PC-3 prostate
[36] = system: OVCAR-8 ovarian
[37] = system: A549 NSCLC
[38] = system: SR leukemia
[39] = system: NCI-H460 lung
[40] = system: OVCAR-3 ovarian
[41] = system: SK-OV-3 ovarian
[42] = system: RXF 393 renal
[43] = system: NCI-H522 lung
[44] = system: SK-MEL-5 melanoma
[45] = system: SW-620 colon
[46] = system: HS 578T breast
[47] = system: UO-31 renal
[48] = system: SK-MEL-28 melanoma
[49] = system: MCF7 breast
[50] = system: MDA-N
[51] = system: MOLT-4 leukemia
[52] = system: UACC-257 melanoma
[53] = system: DU-145 prostate
[54] = system: SK-MEL-2 melanoma
[55] = system: NCI-H226 lung
[56] = system: SF-295 CNS
[57] = system: MDA-MB-231 breast
[58] = system: SNB-75 CNS
[59] = system: CCRF-CEM leukemia

Measured: TGI

Nc1[nH]c(=O)ncc1F
not listed: [57] | [58] | [59]
> 100 µM: all other assays above

COC(=O)C1=C(O)C(C(=O)OC)[C@@]2(O)[C@@H](C(=O)OC)C(c3ccc(OC(=O)/C(=C/c4ccc(Cl)cc4)c4ccc(Cl)cc4)cc3)C[C@@H]1[C@@H]2C(=O)OC (stereo partly drawn)
73.7 µM: [28]
24 µM: [18]
63.9 µM: [55]
82.8 µM: [57]
85.9 µM: [32]
24.6 µM: [7]
51.9 µM: [50]
92.6 µM: [16]
38.2 µM: [54]
34.1 µM: [47]
41.8 µM: [31]
38.1 µM: [5]
not listed: [12] | [27]
> 100 µM: all other assays above
